From patent US12357598B2, “Treatment of neurodevelopmental disorders” (THE REGENTS OF THE UNIVERSITY OF CALIFORNIA, priority 2018, dated 2025) come the findings set out here.

In this test the target is T1, sEH (Homo sapiens, UniProt P34913).
T1 sequence (P34913 1-555): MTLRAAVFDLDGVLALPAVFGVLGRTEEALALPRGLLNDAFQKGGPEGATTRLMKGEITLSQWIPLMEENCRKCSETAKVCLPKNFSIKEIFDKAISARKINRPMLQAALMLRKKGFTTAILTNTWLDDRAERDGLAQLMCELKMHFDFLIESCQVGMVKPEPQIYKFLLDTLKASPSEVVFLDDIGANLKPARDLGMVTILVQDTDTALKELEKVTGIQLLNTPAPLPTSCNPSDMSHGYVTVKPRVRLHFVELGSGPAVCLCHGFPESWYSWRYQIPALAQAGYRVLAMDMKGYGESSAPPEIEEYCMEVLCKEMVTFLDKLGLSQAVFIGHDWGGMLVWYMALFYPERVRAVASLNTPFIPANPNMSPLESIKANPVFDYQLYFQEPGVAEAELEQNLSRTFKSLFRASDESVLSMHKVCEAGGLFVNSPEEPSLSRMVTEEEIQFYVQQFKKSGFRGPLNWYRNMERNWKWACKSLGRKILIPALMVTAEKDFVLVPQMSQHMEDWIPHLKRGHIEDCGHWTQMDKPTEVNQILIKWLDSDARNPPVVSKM
Kind of test: Testing of ureas and lipid alkoxides as sEH inhibitors. In kind it is biochemical. The source says:
(Both the 1- and the 2-adamantyl ureas have been tested and have about the same high activity as an inhibitor of sEH. Thus, isomers of adamantyl dodecyl urea are preferred inhibitors. It is further expected that N, N′-dodecyl-cyclohexyl urea (DCU), and other inhibitors of sEH, and particularly dodecanoic acid ester derivatives of urea, are suitable for use in the methods. Preferred inhibitors include without limitation:
U.S. Pat. No. 5,955,496 (the '496 patent) also sets forth a number of sEH inhibitors which can be used in the methods. One category of these inhibitors comprises inhibitors that mimic the substrate for the enzyme. The lipid alkoxides (e.g., the 9-methoxide of stearic acid) are an exemplar of this group of inhibitors.

Consider `CCCCCCCCCCCCNC(=O)NC12CC3CC(CC(C3)C1)C2` [ADU, N-Adamantyl-N′-dodecyl urea], for which the “activity as an inhibitor of sEH” value is recorded as “particularly high activity”.
